Measured values: patent US3982999A, “Complexing cresolase with copper chelating agents” (priority 1974, dated 1976)
Where “and” joins values, the source holds several entries; their conditions need not be identical. Equal values may be shown once. Read-outs that look alike come from different tables or passages of the source.

Assays:
L1210 mouse leukemia = assay: Antileukemia activity against L1210 mouse leukemia in BDF1 mice (survival); type: in vivo; details: for T/C (test group mean day of death / control group mean day of death): Day 1 through Day 9, uninjected control group
Protocol: (§1) Male BDF1 mice, initial weight ca 23g, were inoculated i.p. on Day 0 with 10^5 L1210 cells per mouse. Treatment was initiated on Day 1 and continued through Day 9. Animals were weighed on days 1 and 5 to assess toxicity. Agents were prepared fresh daily as follows: 8-OH-quinoline (Eastman Chemical Co.) was dissolved in a small volume of absolute ethanol and diluted to the appropriate concentration with 0.1M sodium phosphate buffer, pH 6.5 (final ethanol concentration: 3%). Dilutions were made in buffer containing 3% ethanol. Tyrosinase^2 (Sigma Chemical Co., lot 121C-9530) was dissolved in buffer containing 3% ethanol. (Previous studies had shown that 3% ethanol had no effect on the activity of the enzyme) For the combination, 8-OH-quinoline was again dissolved in a small volume of ethanol, but diluted with 0.1M sodium phosphate buffer; pH6.5, containing tyrosinase in the appropriate concentration. Dilutions were made in buffer containing both 3% ethanol and tyrosinase so that both ethanol and tyrosinase concentrations remained constant as the 8-OH-quinoline concentration decreased. The combination was "incubated" at room temperature for 30 minutes before administration. The radio of enzyme to substrate administered in the combination was varied from 1:1 to 1:.125.
Actual doses administered and results comprise Table IV. Results are expressed as the ratio (T/C) of the test group mean day of death to control group mean day of death.

L1210 leukemia cells [1] = assay: 3-day L1210 cell growth inhibition assay in tyrosine-phenylalanine depleted medium; type: cell-based, mouse; details: Tyrosine and Phenylalamine Depleted Medium, 0.15 g/ml 8-Hydroxyquinoline
Description: (§2) In this experiment, we further investigated the effects of tyrosinase on L1210 cell growth with two media; 1) complete or regular medium and; 2) tyrosine-phenylalanine depleted medium.
(§3) ^a 3-day cell growth inhibition assay.

[2] = Preliminary toxicity study, single intraperitoneal dose; details: mouse, in vivo, ip; single intraperitoneal (i.p.) dose, suspended in Klucel (0.3% hydroxy-propylcellulose), male BDF1 mice
L1210 leukemia cells [3] = assay: 3-day L1210 cell growth inhibition assay in culture (complete or regular medium); type: cell-based, mouse; details: for L1210 Cell Growth (cell concentration day 3 - day 0): control growth 147.9
Description: as §2, §3
^b Cell Growth = (cell concentration day 3 - cell concentration day 0

[4] = Day 1-5 weight change of L1210-bearing mice to assess toxicity; type: in vivo
Protocol: as §1

[5] = tested on: Tyrosinase (polyphenol oxidase) isolated from mushrooms; details: control 0.0433
Protocol: ^a Tyrosinase (polyphenol oxidase) isolated from mushrooms and purchased from Sigma, St. Louis, Mo. The reaction was carried out in 2 quartz curvette containing 1 ml of phosphate buffer (0.5 M, pH 6.5) 1 ml of substrate (1 mM L-tyrosine in H2 O), 0.5 ml of solvent or drug, 0.5 ml H2 O (for blank), 0.4 ml H2 O and 0.1 ml of enzyme (0.5 mg/ml) for the reaction tube. The reaction was started by the addition of enzyme and the change of optical density (Δ O.D.) was determined at 1 min intervals.

[6] = 8-Hydroxyquinoline 0.15 μg/ml, Tyrosinase 0

Structure (SMILES): Oc1cccc2cccnc12 [8-Hydroxyquinoline, 8-hydroxyquinoline]
- T/C (test group mean day of death / control group mean day of death) (L1210 mouse leukemia; 2.5 mg/kg/day): .95
- T/C (test group mean day of death / control group mean day of death) (L1210 mouse leukemia; 5 mg/kg/day): .92
- T/C (test group mean day of death / control group mean day of death) (L1210 mouse leukemia; 10 mg/kg/day): .97
- T/C (test group mean day of death / control group mean day of death) (L1210 mouse leukemia; 20 mg/kg/day): .97
- Mean day of Death (I.S.D.) (L1210 mouse leukemia; mouse, in vivo, listed as 8-OH-quinoline): 9.5 ± 0.8 days and 9.5 ± 0.4 days and 9.0 ± 0.6 days and 9.3 ± 0.8 days
- Inhibition (%) (L1210 leukemia cells [1]; two experiments): 45.6% and 52.2%
- Cell × 10^3 /ml (L1210 leukemia cells [1]; two experiments (controls 102.5, 62.1)): 55.8 × 10^3 /ml and 29.7 × 10^3 /ml
- LD50 [2]: ~75 mg/kg
- L1210 Cell Growth (cell concentration day 3 - day 0) (L1210 leukemia cells [3]; 8-Hydroxyquinoline 0.1 μg/ml, Tyrosinase 0): 126.8 × 10^3 cells/ml
- L1210 Cell Growth % Inhibition (%I) (L1210 leukemia cells [3]; [6]): 61.9%
- L1210 Cell Growth (cell concentration day 3 - day 0) (L1210 leukemia cells [3]; [6]): 56.4 × 10^3 cells/ml
- L1210 Cell Growth (cell concentration day 3 - day 0) (L1210 leukemia cells [3]; 8-Hydroxyquinoline 0.2 μg/ml, Tyrosinase 0): 7.4 × 10^3 cells/ml
- Inhibition (%) (L1210 leukemia cells [3]; Completed Medium, 0.15 g/ml 8-Hydroxyquinoline, two experiments): 12.1% and 21.8%
- Cell × 10^3 /ml (L1210 leukemia cells [3]; Completed Medium, 0.15 g/ml 8-Hydroxyquinoline, two experiments (controls 391.9, 358.5)): 344.5 × 10^3 /ml and 280.2 × 10^3 /ml
- inhibition at 0.1 µg/mL (L1210 leukemia cells [3]; Mus musculus, L1210, 8-Hydroxyquinoline 0.1 μg/ml, Tyrosinase 0, read-out: L1210 Cell Growth % Inhibition (%I)): 14.3%
- inhibition at 0.15 µg/mL (L1210 leukemia cells [3]; Mus musculus, L1210, 8-Hydroxyquinoline 0.15 μg/ml, Tyrosinase 0, read-out: L1210 Cell Growth % Inhibition (%I)): > 60%
- inhibition at 0.2 µg/mL (L1210 leukemia cells [3]; Mus musculus, L1210, 8-Hydroxyquinoline 0.2 μg/ml, Tyrosinase 0, read-out: L1210 Cell Growth % Inhibition (%I)): 95%
- Day 1-5 Weight Change ([4]; 2.5 mg/kg/day): -0.3 gm/mouse
- Day 1-5 Weight Change ([4]; 5 mg/kg/day): +1.4 gm/mouse
- Day 1-5 Weight Change ([4]; 10 mg/kg/day): +1.0 gm/mouse
- Day 1-5 Weight Change ([4]; 20 mg/kg/day): +1.0 gm/mouse
- Reaction Rate ([5]; 8-Hydroxyquinoline 10 μg/ml): 0.0353 Δ OD/Min
- Reaction Rate ([5]; 8-Hydroxyquinoline 50 μg/ml): 0.0160 Δ OD/Min
- Reaction Rate ([5]; 8-Hydroxyquinoline 200 μg/ml): 0.0007 Δ OD/Min
